Legend:
[1] = tested on: micro-tumors (spheroids) from patient tumor tissue; experiment: Chemo-sensitivity screening of compounds distributed in Matrigel on patient micro-tumors (growth by imaged area); type: cell-based, human; conditions: for cancer cell proliferation (spheroid/micro-tumour growth) inhibition: increasing concentrations, inhibited = spheroid grown to less than 1.5x original size after 7 days at least at highest concentrations tested
Experimental: Materials and Solutions: • Support: Matrigel® available from BD Biosciences. • Arrays: Micro slide format arrays with 96 individual wells surrounded by a common reservoir.
Compounds, Matrigel® and arrays are kept at 5° C. (cooling device) throughout the process when not in the freezer. • 1. Compounds were diluted in Matrigel® (Fluid) as single compounds and/or in combinations equal to standard treatment regimens of patients with colorectal cancer. • 2. Matrigel® with compounds were added to individual wells of the arrays (Fluid) • 3. Arrays were centrifuged 10 min at 3000 RPM (cold) • 4. Arrays were stored at −18° C. (Solid)—ready for use
Materials and Solutions: • Array prepared as described in Example 1 • STEM media: DMEM/F12 w. 15% Hepes (Gibco 11330-032), StemPro hESC SFM growth supplement (50×):1× • BSA 25%, Gibco A10008-01: 1.8%, FGF-basic (10 ug/ml): 8 ng/ml, 2-Mercaptoethanol Gibco 21985 (55 mM): 0.1 mM, Penicillin/streptomycin 200 U/ml/200 ug/ml (=2× usual conc.), Gentamycin Sigma G1272: 1:100 (=2× usual conc.), Amphotericin (fungicide): 1:100 (=1× usual conc.), Hepes 15 mM • Cooling device for keeping 5° C. • Incubator, 37° C. (CO2, 99% humidity for cell culture)
Procedure: • 1. Tumor tissue from patient was prepared to form a population of small individual micro-tumors (spheroids) • 2. Micro-tumors were suspended in cold STEM media • 3. The array was taken directly from freezer and placed on the cooling device (solid) • 4. 3 ml micro tumor suspension was added to the reservoir of the array and the array was left for 7 min. to allow cells to distribute and settle into individual wells of the array • 5. STEM media was gently removed from reservoir—leaving the micro tumors in the wells • 6. The array was moved to refrigerator (5° C.) and left for 30 min to allow Matrigel® to liquefy and the cells to settle at the bottom of the array (fluid) • 7. Hereafter the array was incubated at 37° C. for 1 hr. to allow the Matrigel® to solidify and entrap the cells in a certain position (solid) • 8. The array with micro-tumors positioned at the bottom was imaged at an automated microscope • 9. Images were acquired every day for 10 days and micro-tumor growth (and inhibition of growth) was measured by quantifying the area of the micro-tumors.
In general cancer cell proliferation as evidenced by spheroid (micro-tumour) growth was considered inhibited if the spheroid had grown to less than 1.5× the original size after 7 days of incubation at least at the highest concentrations tested.

[2] = tested on: micro-tumors (spheroids) from patient tumor tissue; experiment: Screening of compounds imbedded in thermo sensitive nano-particles distributed in Matrigel on patient micro-tumors; type: cell-based, human; conditions: FIG. 4; images at day 0, 3, 5 and 7; compound released from nano-particles at 42° C.
Experimental: Materials and Solutions: • Nano-particles containing chemo therapeutic compounds • Support: Matrigel® available from BD Biosciences, • Arrays: Micro slide format array with 96 individual wells surrounded by a common reservoir as described in Example 1 • Cooling device for keeping 5° C.
Nano-particles, Matrigel® and arrays were kept at 5° C. (cooling block) throughout the process when not in the freezer. • 1. Compound containing nano-particles were diluted in Matrigel® (fluid). • 2. Matrigel containing the nano-particles (from above point 1) were added to individual wells of the array • 3. The arrays were centrifuged 10 min at 3000 RPM (cold) • 4. The arrays were stored at −18° C. for 24 hrs. (solid)
Materials and Solutions: • Array prepared accordingly to Example 2 • STEM media: DMEM/F12 w. 15% Hepes (Gibco 11330-032), StemPro hESC SFM growth supplement (50×):1× • BSA 25%, Gibco A10008-01: 1.8%, FGF-basic (10 ug/ml): 8 ng/ml, 2-Mercaptoethanol Gibco 21985 (55 mM): 0.1 mM, Penicillin/streptomycin 200 U/ml/200 ug/ml (=2× usual conc.), Gentamycin Sigma G1272: 1:100 (=2× usual conc.), Amphotericin (fungicide): 1:100 (=1× usual conc.), Hepes 15 mM • Incubator, 37° C. […]
Procedure: • 1. […] Images were acquired every day for 10 days and micro-tumor growth (and inhibition of growth) was measured by quantifying the area of the micro-tumors.

Compound	cancer cell proliferation (spheroid/micro-tumour growth) inhibition ([1]; patient 1, FIG. 2a)	cancer cell proliferation (spheroid/micro-tumour growth) inhibition ([1]; patient 2, FIG. 2a)	micro-tumour growth, proliferation of cancer cells [2]	time trace of micro-tumour (spheroid) growth, cancer cell proliferation ([1]; FIG. 3, presence or absence of compound)
O=c1[nH]cc(F)c(=O)[nH]1 [5FU]	inhibited	inhibited	–	–
CCc1c2c(nc3ccc(OC(=O)N4CCC(N5CCCCC5)CC4)cc13)-c1cc3c(c(=O)n1C2)COC(=O)[C@]3(O)CC [Irinotecan]	–	–	inhibits proliferation	clearly inhibited cancer cell proliferation
CCc1c2c(nc3ccc(O)cc13)-c1cc3c(c(=O)n1C2)COC(=O)[C@]3(O)CC [SN38]	inhibited	inhibited	–	–
O=C1[O][Pt]2([NH][C@@H]3CCCC[C@H]3[NH]2)[O]C1=O [Oxaliplatin]	–	inhibited	–	–
